Here are results for eight compounds from US20120121591A1 (priority 2009, published 2012).

Holding throughout (assay type): cell-based
In one assay the target is hKv1.3 (Homo sapiens, UniProt P22001). Kind of assay: cell-based. The note with it: Kv1.3 (IWQ) IC50 (nM, Avg).
Assay [1] has as its system IL-2 secretion from T cells in human whole blood. The following applies: read-out: WB (IL-2) IC50 (nM, Avg).
The subject of assay [2] is IFN-g secretion from T cells in human whole blood. The note with it: read-out: WB (IFNg) IC50 (nM, Avg).

Chain of hKv1.3 (P22001 whole entry): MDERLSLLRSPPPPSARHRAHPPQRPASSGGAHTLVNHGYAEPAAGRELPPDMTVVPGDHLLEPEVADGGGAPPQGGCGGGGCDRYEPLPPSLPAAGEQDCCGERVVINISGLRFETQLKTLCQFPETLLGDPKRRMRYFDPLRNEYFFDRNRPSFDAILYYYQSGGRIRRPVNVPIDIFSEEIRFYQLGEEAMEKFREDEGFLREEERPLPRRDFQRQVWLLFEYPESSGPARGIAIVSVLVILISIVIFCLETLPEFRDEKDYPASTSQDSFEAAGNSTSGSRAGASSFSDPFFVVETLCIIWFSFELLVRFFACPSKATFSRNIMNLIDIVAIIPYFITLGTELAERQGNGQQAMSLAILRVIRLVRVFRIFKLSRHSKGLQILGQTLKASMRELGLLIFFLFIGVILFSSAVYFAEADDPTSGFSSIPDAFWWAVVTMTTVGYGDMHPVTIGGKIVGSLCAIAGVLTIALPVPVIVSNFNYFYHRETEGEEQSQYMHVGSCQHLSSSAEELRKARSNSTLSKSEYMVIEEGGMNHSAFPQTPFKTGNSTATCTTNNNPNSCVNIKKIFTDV

For the compound `CC[C@H](C)[C@@H]1NC(=O)[C@@H](NC(=O)[C@H](CO)NC(=O)[C@@H](N)CCCNC(=N)N)CSSC[C@@H](C(=O)O)NC(=O)[C@H]([C@@H](C)O)NC(=O)CNC(=O)[C@@H]2CSSC[C@@H]3NC(=O)[C@H](Cc4cccc5ccccc45)NC(=O)[C@H](Cc4ccccc4)NC(=O)[C@H](C)NC(=O)[C@H]([C@@H](C)O)NC(=O)[C@H](CSSC[C@H](NC(=O)[C@H](Cc4ccccc4)NC(=O)[C@H](CO)NC(=O)[C@H](CC(C)C)NC(=O)[C@H](CCCNC(=N)N)NC(=O)[C@H](Cc4ccc(O)cc4)NC(=O)[C@H](CCCCN)NC(=O)[C@H](CCSC)NC(=O)[C@H](CO)NC(=O)[C@H](Cc4c[nH]cn4)NC(=O)[C@H](CCCCN)NC3=O)C(=O)N[C@@H](CCCNC(=N)N)C(=O)N[C@@H](CCCCN)C(=O)N[C@@H]([C@@H](C)O)C(=O)N2)NC(=O)[C@H](CCCNC(=N)N)NC(=O)[C@H](CO)NC(=O)[C@H](CCCCN)NC(=O)[C@@H]2CCCN2C(=O)[C@H]([C@@H](C)CC)NC(=O)[C@H]([C@@H](C)O)NC(=O)[C@H](CC(=O)O)NC1=O` [[1-Nal16]ShK], the IC50 was 0.699 nM at hKv1.3, 28.9 nM in assay [1] and 9.55 nM in assay [2].
For `CC[C@H](C)[C@@H]1NC(=O)[C@@H](NC(=O)[C@H](CO)NC(=O)[C@@H](N)CCCNC(=N)N)CSSC[C@@H](C(=O)O)NC(=O)[C@H]([C@@H](C)O)NC(=O)CNC(=O)[C@@H]2CSSC[C@@H]3NC(=O)[C@H](CCC(N)=O)NC(=O)[C@H](Cc4ccccc4)NC(=O)[C@H](C)NC(=O)[C@H]([C@@H](C)O)NC(=O)[C@H](CSSC[C@H](NC(=O)[C@H](Cc4ccccc4)NC(=O)[C@H](CO)NC(=O)[C@H](CC(C)C)NC(=O)[C@H](CCCNC(=N)N)NC(=O)[C@H](Cc4ccc(O)cc4)NC(=O)[C@H](CCCCN)NC(=O)[C@H](CCSC)NC(=O)[C@H](CO)NC(=O)[C@H](Cc4c[nH]cn4)NC(=O)[C@H](Cc4cccc5ccccc45)NC3=O)C(=O)N[C@@H](CCCNC(=N)N)C(=O)N[C@@H](CCCCN)C(=O)N[C@@H]([C@@H](C)O)C(=O)N2)NC(=O)[C@H](CCCNC(=N)N)NC(=O)[C@H](CO)NC(=O)[C@H](CCCCN)NC(=O)[C@@H]2CCCN2C(=O)[C@H]([C@@H](C)CC)NC(=O)[C@H]([C@@H](C)O)NC(=O)[C@H](CC(=O)O)NC1=O` [[1-Nal18]ShK], the IC50 on hKv1.3 was 0.471 nM; in assay [1], 0.419 nM; in assay [2], 0.375 nM.
For the compound `CC[C@H](C)[C@@H]1NC(=O)[C@@H](NC(=O)[C@H](CO)NC(=O)[C@@H](N)CCCNC(=N)N)CSSC[C@@H](C(=O)O)NC(=O)[C@H]([C@@H](C)O)NC(=O)CNC(=O)[C@@H]2CSSC[C@@H]3NC(=O)[C@H](CCC(N)=O)NC(=O)[C@H](Cc4ccccc4)NC(=O)[C@H](C)NC(=O)[C@H]([C@@H](C)O)NC(=O)[C@H](CSSC[C@H](NC(=O)[C@H](Cc4ccccc4)NC(=O)[C@H](CO)NC(=O)[C@H](CC(C)C)NC(=O)[C@H](CCCNC(=N)N)NC(=O)[C@H](Cc4ccc(O)cc4)NC(=O)[C@H](CCCCN)NC(=O)[C@H](CCSC)NC(=O)[C@H](CO)NC(=O)[C@H](Cc4cccc5ccccc45)NC(=O)[C@H](CCCCN)NC3=O)C(=O)N[C@@H](CCCNC(=N)N)C(=O)N[C@@H](CCCCN)C(=O)N[C@@H]([C@@H](C)O)C(=O)N2)NC(=O)[C@H](CCCNC(=N)N)NC(=O)[C@H](CO)NC(=O)[C@H](CCCCN)NC(=O)[C@@H]2CCCN2C(=O)[C@H]([C@@H](C)CC)NC(=O)[C@H]([C@@H](C)O)NC(=O)[C@H](CC(=O)O)NC1=O` [[1-Nal19]ShK], the concentration for half-maximal inhibition (IC50) against hKv1.3 was 0.277 nM; in assay [1] it was 0.153 nM; in assay [2], 0.255 nM.
In the case of `CC[C@H](C)[C@@H]1NC(=O)[C@@H](NC(=O)[C@H](CO)NC(=O)[C@@H](N)CCCNC(=N)N)CSSC[C@@H](C(=O)O)NC(=O)[C@H]([C@@H](C)O)NC(=O)CNC(=O)[C@@H]2CSSC[C@@H]3NC(=O)[C@H](CCC(N)=O)NC(=O)[C@H](Cc4ccccc4)NC(=O)[C@H](C)NC(=O)[C@H]([C@@H](C)O)NC(=O)[C@H](CSSC[C@H](NC(=O)[C@H](Cc4ccccc4)NC(=O)[C@H](CO)NC(=O)[C@H](CC(C)C)NC(=O)[C@H](CCCNC(=N)N)NC(=O)[C@H](Cc4ccc(O)cc4)NC(=O)[C@H](CCCCN)NC(=O)[C@H](Cc4cccc5ccccc45)NC(=O)[C@H](CO)NC(=O)[C@H](Cc4c[nH]cn4)NC(=O)[C@H](CCCCN)NC3=O)C(=O)N[C@@H](CCCNC(=N)N)C(=O)N[C@@H](CCCCN)C(=O)N[C@@H]([C@@H](C)O)C(=O)N2)NC(=O)[C@H](CCCNC(=N)N)NC(=O)[C@H](CO)NC(=O)[C@H](CCCCN)NC(=O)[C@@H]2CCCN2C(=O)[C@H]([C@@H](C)CC)NC(=O)[C@H]([C@@H](C)O)NC(=O)[C@H](CC(=O)O)NC1=O` [[1-Nal21]ShK], the results for the concentration for half-maximal inhibition (IC50) (against hKv1.3; in assay [1]; in assay [2]) were 0.669 nM, 6.59 nM and 8.13 nM, respectively.
Consider `CC[C@H](C)[C@@H]1NC(=O)[C@@H](NC(=O)[C@H](CO)NC(=O)[C@@H](N)CCCNC(=N)N)CSSC[C@@H](C(=O)O)NC(=O)[C@H]([C@@H](C)O)NC(=O)CNC(=O)[C@@H]2CSSC[C@@H]3NC(=O)[C@H](CCC(N)=O)NC(=O)[C@H](Cc4ccccc4)NC(=O)[C@H](C)NC(=O)[C@H]([C@@H](C)O)NC(=O)[C@H](CSSC[C@H](NC(=O)[C@H](Cc4ccccc4)NC(=O)[C@H](CO)NC(=O)[C@H](Cc4cccc5ccccc45)NC(=O)[C@H](CCCNC(=N)N)NC(=O)[C@H](Cc4ccc(O)cc4)NC(=O)[C@H](CCCCN)NC(=O)[C@H](CCSC)NC(=O)[C@H](CO)NC(=O)[C@H](Cc4c[nH]cn4)NC(=O)[C@H](CCCCN)NC3=O)C(=O)N[C@@H](CCCNC(=N)N)C(=O)N[C@@H](CCCCN)C(=O)N[C@@H]([C@@H](C)O)C(=O)N2)NC(=O)[C@H](CCCNC(=N)N)NC(=O)[C@H](CO)NC(=O)[C@H](CCCCN)NC(=O)[C@@H]2CCCN2C(=O)[C@H]([C@@H](C)CC)NC(=O)[C@H]([C@@H](C)O)NC(=O)[C@H](CC(=O)O)NC1=O` [[1-Nal25]ShK], for which the concentration for half-maximal inhibition (IC50) came out at 0.106 nM at hKv1.3, 0.061 nM in assay [1] and 0.084 nM in assay [2].
Take `CC[C@H](C)[C@@H]1NC(=O)[C@@H](NC(=O)[C@H](CO)NC(=O)[C@@H](N)CCCNC(=N)N)CSSC[C@@H](C(=O)O)NC(=O)[C@H]([C@@H](C)O)NC(=O)CNC(=O)[C@@H]2CSSC[C@@H]3NC(=O)[C@H](CCC(N)=O)NC(=O)[C@H](Cc4ccccc4)NC(=O)[C@H](C)NC(=O)[C@H]([C@@H](C)O)NC(=O)[C@H](CSSC[C@H](NC(=O)[C@H](Cc4cccc5ccccc45)NC(=O)[C@H](CO)NC(=O)[C@H](CC(C)C)NC(=O)[C@H](CCCNC(=N)N)NC(=O)[C@H](Cc4ccc(O)cc4)NC(=O)[C@H](CCCCN)NC(=O)[C@H](CCSC)NC(=O)[C@H](CO)NC(=O)[C@H](Cc4c[nH]cn4)NC(=O)[C@H](CCCCN)NC3=O)C(=O)N[C@@H](CCCNC(=N)N)C(=O)N[C@@H](CCCCN)C(=O)N[C@@H]([C@@H](C)O)C(=O)N2)NC(=O)[C@H](CCCNC(=N)N)NC(=O)[C@H](CO)NC(=O)[C@H](CCCCN)NC(=O)[C@@H]2CCCN2C(=O)[C@H]([C@@H](C)CC)NC(=O)[C@H]([C@@H](C)O)NC(=O)[C@H](CC(=O)O)NC1=O` [[1-Nal27]ShK]: the IC50 turned out to be 0.144 nM at hKv1.3, 1.07 nM in assay [1] and 2.84 nM in assay [2].
As to `CC[C@H](C)[C@@H]1NC(=O)[C@@H](NC(=O)[C@H](CO)NC(=O)[C@@H](N)CCCNC(=N)N)CSSC[C@@H](C(=O)O)NC(=O)[C@H]([C@@H](C)O)NC(=O)CNC(=O)[C@@H]2CSSC[C@@H]3NC(=O)[C@H](CCC(N)=O)NC(=O)[C@H](Cc4ccccc4)NC(=O)[C@H](C)NC(=O)[C@H]([C@@H](C)O)NC(=O)[C@H](CSSC[C@H](NC(=O)[C@H](Cc4ccccc4)NC(=O)[C@H](CO)NC(=O)[C@H](CC(C)C)NC(=O)[C@H](CCCNC(=N)N)NC(=O)[C@H](Cc4ccc(O)cc4)NC(=O)[C@H](CCCCN)NC(=O)[C@H](CCSC)NC(=O)[C@H](CO)NC(=O)[C@H](Cc4c[nH]cn4)NC(=O)[C@H](CCCCN)NC3=O)C(=O)N[C@@H](Cc3cccc4ccccc34)C(=O)N[C@@H](CCCCN)C(=O)N[C@@H]([C@@H](C)O)C(=O)N2)NC(=O)[C@H](CCCNC(=N)N)NC(=O)[C@H](CO)NC(=O)[C@H](CCCCN)NC(=O)[C@@H]2CCCN2C(=O)[C@H]([C@@H](C)CC)NC(=O)[C@H]([C@@H](C)O)NC(=O)[C@H](CC(=O)O)NC1=O` [[1-Nal29]ShK], the IC50 against hKv1.3 is 3.3 nM; in assay [1], 4.72 nM; in assay [2], 8.08 nM.
For `CC[C@H](C)[C@@H]1NC(=O)[C@@H](NC(=O)[C@H](CO)NC(=O)[C@H](C)N)CSSC[C@@H](C(=O)O)NC(=O)[C@H]([C@@H](C)O)NC(=O)CNC(=O)[C@@H]2CSSC[C@@H]3NC(=O)[C@H](CCC(N)=O)NC(=O)[C@H](Cc4ccccc4)NC(=O)[C@H](C)NC(=O)[C@H]([C@@H](C)O)NC(=O)[C@H](CSSC[C@H](NC(=O)[C@H](Cc4ccccc4)NC(=O)[C@H](CO)NC(=O)[C@H](CC(C)C)NC(=O)[C@H](CCCNC(=N)N)NC(=O)[C@H](Cc4ccc(O)cc4)NC(=O)[C@H](CCCCN)NC(=O)[C@H](CCSC)NC(=O)[C@H](CO)NC(=O)[C@H](Cc4c[nH]cn4)NC(=O)[C@H](CCCCN)NC3=O)C(=O)N[C@@H](CCCNC(=N)N)C(=O)N[C@@H](CCCCN)C(=O)N[C@@H]([C@@H](C)O)C(=O)N2)NC(=O)[C@H](CCCNC(=N)N)NC(=O)[C@H](CO)NC(=O)[C@H](CCCCN)NC(=O)[C@@H]2CCCN2C(=O)[C@H]([C@@H](C)CC)NC(=O)[C@H]([C@@H](C)O)NC(=O)[C@H](CC(=O)O)NC1=O` [[Ala1]ShK], the IC50 was determined as 0.168 nM against hKv1.3, 0.073 nM in assay [1] and 0.102 nM in assay [2].

A word on the IC50: it is the point on the concentration scale where inhibition reaches its midpoint.
